From article PMC7155171, “Probing the Open Global Health Chemical Diversity Library for Multistage-Active Starting Points for Next-Generation Antimalarials” (ACS Infectious Diseases, 2020)

How the values were obtained:
[1] = test system: P. berghei liver stage (PbLuc); test: P. berghei luciferase liver stage (PbLuc) assay in HepG2-A16-CD81 hepatocytes; type: cell-based, Plasmodium berghei; conditions: Plasmodium berghei; for IC50: HepG2-A16-CD81, 12pt dose response, read-out: PbLuc 12pt dose response: IC50; for Emax: HepG2-A16-CD81, 48 h, 12pt dose response, maximum inhibition
[2] = biological target: recombinant firefly luciferase (Photinus pyralis, UniProt P08659); test: biochemical; conditions: dose response; for Emax: maximum inhibition, read-out: rLuc inhibition dose response: Maximum inhibition (%); for IC50: read-out: rLuc inhibition dose response: IC50
Sequence of recombinant firefly luciferase (P08659 whole entry): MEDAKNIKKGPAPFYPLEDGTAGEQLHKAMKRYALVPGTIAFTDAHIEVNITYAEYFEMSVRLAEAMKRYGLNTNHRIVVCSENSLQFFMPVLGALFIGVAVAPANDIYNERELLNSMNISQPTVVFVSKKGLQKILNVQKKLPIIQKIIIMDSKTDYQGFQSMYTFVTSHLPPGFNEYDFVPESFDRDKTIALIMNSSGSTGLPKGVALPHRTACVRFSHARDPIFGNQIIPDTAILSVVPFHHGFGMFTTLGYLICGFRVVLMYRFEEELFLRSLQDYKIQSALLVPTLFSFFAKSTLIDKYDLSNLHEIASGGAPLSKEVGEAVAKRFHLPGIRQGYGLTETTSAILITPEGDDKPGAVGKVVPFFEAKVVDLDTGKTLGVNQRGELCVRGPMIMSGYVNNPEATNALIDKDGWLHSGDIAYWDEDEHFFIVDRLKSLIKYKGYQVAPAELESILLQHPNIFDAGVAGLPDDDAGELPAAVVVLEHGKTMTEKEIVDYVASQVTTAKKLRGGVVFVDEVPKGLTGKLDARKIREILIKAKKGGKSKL

[3] = HepG2 cytotoxicity screening (CellTiter-Glo); conditions: human, uninfected HepG2-A16-CD81 (EGFP) hepatocytes
[4] = test system: HepG2-A16-CD81 hepatocytes; test: HepG2 cytotoxicity screening (CellTiter-Glo); conditions: for HepG2 cytotoxicity 12pt dose response: Maximum inhibition (%): 12pt dose response

SMILES	IC50 [1]	Emax [1]	Emax [2]	IC50 [2]	IC50 [3]	HepG2 Cytotoxicity primary screen (2uM): % Inhibition [4]	HepG2 cytotoxicity 12pt dose response: Maximum inhibition (%) [4]	inhibition at 2 µM [3]
COC1CCN(c2ccc(NC(=O)C3CC3)cc2C(F)(F)F)CC1 [UCSD-0582177]	14.7 µM	87.5%	16.4%	> 25 µM	> 25 µM	12.40%	23%	–
COc1ccc(-c2cc(CNc3ncnc4c3CCNCC4)no2)cc1 [UCSD-0833048]	10.2 µM	91.8%	0.184%	> 25 µM	> 25 µM	4.02%	49.3%	–
CCc1ccc(-c2ncc3c(n2)N(C)CCN(CCN(C)C)C3=O)cc1 [UCSD-0824219]	12.1 µM	81.1%	7.09%	> 25 µM	> 25 µM	4.38%	6.88%	–
Cc1ccc(-c2ccc(C3CNCCO3)nc2)cc1 (stereo not drawn) [UCSD-0802459]	< 0.000141 µM	98.6%	88.3%	0.00428 µM	> 50 µM	–	48.6%	25.3%
O=C(Nc1ccc(Cl)cn1)c1nn(C2CCS(=O)(=O)C2)c2c1CCCC2 (stereo not drawn) [UCSD-0749819]	> 25 µM	60%	2.39%	> 25 µM	> 25 µM	–	-0.0195%	-5.58%
COc1ccc2cc(C3CN(C(=O)N(C)C)CCO3)ccc2c1 (stereo not drawn) [UCSD-0838135]	< 0.000141 µM	82.4%	91.8%	3.45 µM	> 25 µM	–	6.4%	-0.4%
Cc1cc(NC(=O)C(C)C)n(-c2nc(C)c(C)c(=O)[nH]2)n1 [UCSD-0786977]	0.129 µM	100%	12.4%	> 50 µM	> 25 µM	–	36.8%	–
Cc1ncc(CN2CCOC(c3ccc(-c4ccccc4F)cn3)C2)s1 (stereo not drawn) [UCSD-0800928]	11.1 µM	85.7%	19.3%	> 25 µM	> 25 µM	-6.23%	36.5%	–
Cc1nc(C(=O)NC2CCN(CCOc3ccc(Br)cc3)CC2)cs1 [UCSD-0818164]	13.6 µM	98.3%	32.1%	> 25 µM	> 25 µM	17.63%	35.2%	–
O=C(NCCCN1CCCCC1)c1ccc(-n2ccc3ccccc32)s1 [UCSD-0795001]	11.6 µM	116%	-4.22%	> 25 µM	22.1 µM	0.00%	66.1%	–
CCc1nc(CN2CCCN(c3ncnc4ccccc34)CC2)no1 [UCSD-0620461]	0.691 µM	96.1%	3.79%	> 50 µM	> 1.85 µM	–	60.2%	6.37%
COCc1noc(-c2ccc(N3CCCCC3CO)nc2)n1 (stereo not drawn) [UCSD-0838277]	< 0.000141 µM	82.5%	73.7%	6.29 µM	> 25 µM	–	0.196%	-1.51%
CCc1cccc(N2CCC(NC(=O)c3ccco3)CC2)c1 [UCSD-0587427]	11.1 µM	87.3%	11.1%	> 25 µM	> 25 µM	4.14%	3.68%	–
Cn1cncc1CN1CCCC1c1cncc(Oc2ccc(Cl)cc2)n1 (stereo not drawn) [UCSD-0800730]	12.9 µM	92.6%	3.17%	> 25 µM	> 25 µM	0.83%	38.2%	–
Cc1ccc(Sc2ccc(CN3CCC4(CCCNC4=O)C3)o2)cc1 (stereo not drawn) [UCSD-0825128]	14.7 µM	95%	21.8%	> 25 µM	> 25 µM	-4.20%	8.34%	–
Cc1csc2ncnc(N3CCC(Cn4cc(C(C)(C)N)nn4)CC3)c12 [UCSD-0838044]	11.4 µM	71.7%	21.9%	> 25 µM	> 25 µM	4.60%	46.5%	–

SMILES	IC50 [1]	Emax [1]	Emax [2]	IC50 [2]	IC50 [3]	HepG2 Cytotoxicity primary screen (2uM): % Inhibition [4]	HepG2 cytotoxicity 12pt dose response: Maximum inhibition (%) [4]	inhibition at 2 µM [3]
CC(C(=O)Nc1sccc1C(N)=O)N(C)CCOc1ccccc1 (stereo not drawn) [UCSD-0809872]	0.787 µM	95.7%	17.7%	> 50 µM	> 25 µM	–	7.13%	5.59%
Cc1ccc(N(CC(=O)c2ccc(Br)cc2)C2=NCCCCC2)cc1 [UCSD-0795313]	13.6 µM	93.4%	7.66%	> 25 µM	> 25 µM	0.00%	28.6%	–
CCCc1cncnc1N1CCC(NCc2cc3ccccc3[nH]2)CC1 [UCSD-0834906]	1.84 µM	97.5%	31.4%	> 25 µM	> 25 µM	–	32.8%	7.01%
COc1c(CNCc2ccc(C(=O)N(C)C(C)C)cc2)c(C)nn1C [UCSD-0723791]	2.49 µM	86.3%	-4.69%	> 25 µM	16.6 µM	–	53.2%	0.82%
COC(=O)CSCc1noc(-c2ccc(C)cc2)n1 [UCSD-0807935]	0.0335 µM	77.1%	62.8%	> 25 µM	> 25 µM	–	3.73%	-4.01%
Cc1nc(NC(=O)c2c(-n3cnnn3)sc(C)c2C)sc1C [UCSD-0786548]	0.0144 µM	–	1.63%	> 25 µM	> 25 µM	–	8.84%	4.63%
CC(C)Cc1ccc(S(=O)(=O)Nc2ccc(=O)n(C)c2)cc1 [UCSD-0710590]	0.0472 µM	91.6%	7.28%	> 25 µM	> 0.31 µM	–	60.9%	3.02%
COc1cccc(CN2CCN(c3ccc4nncn4n3)C(C)C2)c1 (stereo not drawn) [UCSD-0601459]	12.6 µM	92.1%	0.876%	> 25 µM	> 25 µM	-7.20%	49.9%	–
Cc1nc(N2CC[C@@H](NC(=O)c3cnccn3)[C@H](O)C2)c2ccsc2n1 [UCSD-0839060]	10.4 µM	90.6%	0.656%	> 25 µM	> 25 µM	-14.64%	48.7%	–
COc1cc(CNCc2ccnc(N3CCCCC3)c2)cc(OC)c1 [UCSD-0841255]	11.3 µM	85%	1.69%	> 25 µM	> 25 µM	-2.79%	36.6%	–
COc1c(C)cnc(CN2CCC(N(C)C(C)C(N)=O)CC2)c1C (stereo not drawn) [UCSD-0844796]	11.7 µM	87.4%	-2.93%	> 25 µM	> 25 µM	1.63%	-0.307%	–
c1ccc(OCCNc2ncnc3sc4c(c23)CCNC4)cc1 [UCSD-0829760]	9.15 µM	73%	7.54%	> 25 µM	> 25 µM	–	42.9%	-2.42%
c1ccc(-c2ccc(C3CNCCO3)nc2)cc1 (stereo not drawn) [UCSD-0839460]	< 0.000141 µM	80.4%	89.9%	0.22 µM	> 25 µM	6.27%	-1.08%	–
O=c1c2sccc2nc2n1CCN(Cc1ccccc1C(F)(F)F)CC2 [UCSD-0801403]	6.77 µM	95.7%	18.4%	> 25 µM	> 25 µM	–	19.7%	0%
CC(Nc1ncnc2c1CCNC2)c1ccc2c(c1)CCCC2 (stereo not drawn) [UCSD-0833335]	9.75 µM	79.1%	12.6%	> 25 µM	18.4 µM	0.57%	57.6%	–
O=S(=O)(c1ccc(Cl)s1)N1CCN(Cc2nc(-c3ccco3)cs2)CC1 [UCSD-0787251]	11 µM	93.6%	13.6%	> 25 µM	22 µM	12.14%	65.6%	–
